Source: BigSolDB 2.1

Conditions: in ethanol

CC(C)C1=CC2=CC[C@@H]3[C@](C)(CCC[C@@]3(C)C(=O)O)[C@H]2CC1
Conditions | solubility (mole fraction)
285.07 K | 0.0165
288.7 K | 0.0183
292 K | 0.0202
294.8 K | 0.0219
297.05 K | 0.0235
299.63 K | 0.0253
301.8 K | 0.0272
304.05 K | 0.0291
306.05 K | 0.0311
308.22 K | 0.0335
310.35 K | 0.036
312.35 K | 0.0385
315.23 K | 0.041
316.85 K | 0.0439
319.03 K | 0.0467
